Patent US7422846B2, “Natural ligand for orphan G protein coupled receptor GPR86 and methods of use” (Euroscreen S.A, priority 2001, dated 2008)

Target: T1, GPR86 (P2Y13) human receptor (Homo sapiens, UniProt Q9BPV8, T179M)
T1 sequence (Q9BPV8 22-354 T179M): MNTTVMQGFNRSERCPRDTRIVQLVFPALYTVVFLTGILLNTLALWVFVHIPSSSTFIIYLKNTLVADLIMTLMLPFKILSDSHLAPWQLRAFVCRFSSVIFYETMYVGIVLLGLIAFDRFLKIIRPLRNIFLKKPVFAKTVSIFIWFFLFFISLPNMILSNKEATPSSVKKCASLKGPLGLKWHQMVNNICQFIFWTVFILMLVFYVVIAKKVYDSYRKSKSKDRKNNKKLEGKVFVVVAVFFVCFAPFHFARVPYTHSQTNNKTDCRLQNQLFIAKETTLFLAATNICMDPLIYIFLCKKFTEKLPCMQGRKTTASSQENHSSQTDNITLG
Experiment: IP3 accumulation in 1321N1 cells (AG32) expressing GPR86 (P2Y13) together with Gα16
Type: cell-based
Design: expressed in transfected cells; host or cells: 1321N1 astrocytoma clone AG32 (stably expressing Gα16 from pERAEQ2), G418-selected
Settings: for EC50: 1321N1 cells expressing GPR86 and Gα16, 30 s, mean±S.D. of three independent experiments, read-out: EC50, IP3 accumulation
Experimental: Cells of the invention, for example, 1321N1 cells, are labelled for 24 hours with 10 μCi/ml [^3H] inositol in inositol free DMEM containing 5% FCS, antibiotics, amphotericin, sodium pyruvate and 400 μg/ml G418. Cells are incubated for 2 h in Krebs-Ringer Hepes (KRH) buffer of the following composition (124 mM NaCl, 5 mM KCl, 1.25 mM MgSO4, 1.45 mM CaCl2, 1.25 mM KH2PO4, 25 mM Hepes (pH: 7.4) and 8 mM glucose). The cells are then challenged with various nucleotides for 30 s. The incubation is stopped by the addition of an ice cold 3% perchloric acid solution. IP are extracted and separated on Dowex columns as previously described (25). 2MeSATP and ATP solutions (1 mM) are treated at room temperature with 20 units/ml CPK and 10 Mm cp for 90 min to circumvent problems arising from the contamination and degradation of triphosphate nucleotide solutions.
CHO-K1 and 1321N1 cells were transfected with the recombinant GPR86-pEFIN5 plasmid or with the plasmid alone using the FuGENE™6 transfection reagent (Roche Molecular Biochemicals). A clone called AG32 corresponding to 1321N1 cells previously transfected with pERAEQ2 plasmid encoding Gα16 (provided by Euroscreen), was transfected. The CHO-K1 and 1321N1 transfected cells were selected with 400 μg/ml G418 in complete medium (10% FBS, 100 units/ml penicillin, 100 μg/ml streptomycin and 2.5 μg/ml amphotericin B in respectively Ham's F12 or DMEM (Dulbecco's modified Eagle's) medium) two days after transfection and maintained in the same medium. The AG32 cells were maintained in the same DMEM complete medium supplemented with 500 μg/ml zeocin.
The pool of G418-resistant clones was tested for its functional IP3 response to several nucleotides, according to the method described above. The cells were challenged by various nucleotides at a concentration of 100 μM for 30 s: ATP, ADP, UTP, UDP, ITP, IDP, TDP.
Concentration-action curves for ADP, 2MeSADP and ADPβS. […] 1321N1 transfected cells were incubated in the presence of various concentrations of ADP, 2MeSADP and ADPβS for 30 s. The data represent the mean±S.D. of triplicate experimental points obtained in one representative experiment of three.
AG32 cells were seeded (200,000 cells per dish) on 35 mm (diameter) Petri dishes and labeled for 24 h with 5 μCi/ml [3H]-myoinositol in inositol free DMEM containing 5% fetal calf serum, antibiotics, amphotericin, sodium pyruvate, and 400 μg/ml of G418. Cells were incubated for 2 h in Krebs-Ringer Hepes (KRH) buffer (124 mM NaCl, 5 mM KCl, 1.25 mM MgSO4, 1.45 mM CaCl2, 1.25 mM KH2PO4, 25 mM Hepes (pH 7.4) and 8 mM D-glucose). The cells were then incubated in presence of ADP, ATP or 2MeSATP for 30 s. The incubation was stopped by the addition of 1 ml of an ice-cold 3% perchloric acid solution. Prior to the stimulation, ATP and 2MeSATP (1 mM solutions) were incubated for 90 min at room temperature with 20 units/ml creatine phosphokinase (CPK) and 10 mM creatine phosphate (CP). The reaction was stopped by addition of 10 mM iodoacetamide.
AG32 cells were seeded (200,000 cells per dish) on 35 mm (diameter) Petri dishes and labeled for 24 h with 5 μCi/ml [^3H]-myoinositol in inositol free DMEM containing 5% fetal calf serum, antibiotics, amphotericin, sodium pyruvate, and 400 μg/ml of G418. Cells were incubated for 2 h in Krebs-Ringer Hepes (KRH) buffer (124 mM NaCl, 5 mM KCl, 1.25 mM MgSO4, 1.45 mM CaCl2, 1.25 mM KH2PO4, 25 mM Hepes (pH 7.4) and 8 mM D-glucose). The cells were then incubated in presence of two different concentrations (100 nM and 10 μM) of ADP or ApnA (n=3-6) for 30 s. The incubation was stopped by the addition of 1 ml of an ice-cold 3% perchloric acid solution.
AG32 cells were seeded (200,000 cells per dish) on 35 mm (diameter) Petri dishes and labeled for 24 h with 5 μCi/ml [^3H]-myoinositol in inositol free DMEM containing 5% fetal calf serum, antibiotics, amphotericin, sodium pyruvate, and 400 μg/ml of G418.

SMILES	EC50 [nM]	IP3 response to nucleotides (100 μM for 30 s, pool of G418-resistant clones expressing GPR86 and Gα16)
CSc1nc(N)c2ncn([C@@H]3O[C@H](COP(=O)(O)OP(=O)(O)O)[C@@H](O)[C@H]3O)c2n1 [2MeSADP, 2-methylthio-ADP]	14.2 ± 3	
Nc1ncnc2c1ncn2[C@@H]1O[C@H](COP(=O)(O)OP(=O)(O)O)[C@@H](O)[C@H]1O [ADP]	11.4 ± 2.2	induced an IP3 response
